Experimental data published in patent EP0552612A2, “Methods for determining and isolating compounds which bind directly to nucleosolic proteins” (F. HOFFMANN-LA ROCHE AG, priority 1992, dated 1993).

How the values were obtained:
RARα [1] = molecular target: T1, RARα (Homo sapiens, UniProt P10276); test: In vitro binding of ³H-T-RA to nucleosol of transfected COS-1 cells; settings: nucleosol from RARα-transfected COS-1 cells; 10 nM ³H-T-RA, 2 hours at 4°C
T1 sequence (P10276 1-462): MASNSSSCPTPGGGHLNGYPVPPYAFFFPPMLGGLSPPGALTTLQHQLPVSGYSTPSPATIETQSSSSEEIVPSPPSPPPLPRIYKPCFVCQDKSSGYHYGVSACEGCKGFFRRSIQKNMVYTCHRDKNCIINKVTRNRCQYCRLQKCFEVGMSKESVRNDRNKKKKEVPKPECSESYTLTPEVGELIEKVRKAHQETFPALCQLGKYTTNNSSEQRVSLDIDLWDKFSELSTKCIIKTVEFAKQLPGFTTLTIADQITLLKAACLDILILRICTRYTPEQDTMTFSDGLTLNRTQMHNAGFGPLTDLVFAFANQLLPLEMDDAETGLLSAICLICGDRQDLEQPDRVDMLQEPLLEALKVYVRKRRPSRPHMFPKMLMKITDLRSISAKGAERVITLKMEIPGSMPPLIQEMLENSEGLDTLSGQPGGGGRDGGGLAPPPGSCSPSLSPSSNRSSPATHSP

[2] = system: retinoic acid receptors α, β or γ; test: Competitive binding with ³H-T-RA to nucleosol of RAR-transfected COS-1 cells; design: species or system human; settings: concentrations as high as 1 µM; 5 nM ³H-T-RA, 4°C, 30 minutes
Experimental: Competitive binding studies were performed as follows. COS-1 cells were transfected with the cDNAs encoding RARs α, β or γ in the expression vector pSG5 (described in Example 1). The cells were cultured for 72 hours and the nucleosol fraction isolated (14). Nucleosol fractions were incubated (14) at 4°C for 30 minutes with 5 nM ³H-T-RA with various concentrations of unlabeled 13-cis RA. Bound was separated from free radioactivity using PD10 columns as described in Example 1 above.

RARα [3] = molecular target: T1, RARα; test: Displacement of radiolabel from nucleosol of COS-1 cells treated in culture with ³H-T-RA; settings: excess unlabeled T-RA (10 µM), 4 hours at 4°C

SMILES: [3H]C(/C=C(C)/C=C/C1=C(C)CCCC1(C)C)=C([3H])\C(C)=C\C(=O)O [³H-T-RA]
- binding of ³H-T-RA (RARα [1]): considerable binding

SMILES: CC1=C(/C=C/C(C)=C/C=C/C(C)=C\C(=O)O)C(C)(C)CCC1 [13-cis RA, 13-cis retinoic acid]
- competition with ³H-T-RA for binding [2]: minimal competition for binding

SMILES: CC1=C(/C=C/C(C)=C/C=C/C(C)=C/C(=O)O)C(C)(C)CCC1 [T-RA, all-trans retinoic acid]
- displacement of bound radiolabel (RARα [3]): displaces radioactivity bound in the RARα nucleosol
